The source of these data is US11987648B2, “Cyclohexapeptides as selective somatostatin SST5 receptor agonists” (Heptares Therapeutics Limited, priority 2018, dated 2024).

The structures appear in SMILES notation. Read-outs that look alike come from different tables or passages of the source. *1 amine or outer side, *2 acyl side, *3 side chain or, on linkers, in order; H or OH if unused. Where a SMILES comes first, the peptide text is derived from it. Side-chain parts run from the residue outwards. [ ]: non-standard residue; d: D form. The star is where a group is joined. Ala(piperidin-4-yl) = O=C([C@H](CC1CCN([*:3])CC1)N[*:1])[*:2]; X2 = O=C([C@@H]1C[C@@H](Oc2ccncc2)CN1[*:1])[*:2]; Ala(piperazin-1-yl) = N[C@@H](CN1CCNCC1)C(=O)O; Phe(3-Cl) = N[C@@H](Cc1cccc(Cl)c1)C(=O)O; Morpholine(3S-CO) = O=C(O)[C@@H]1COCCN1; Ethylenediamine = C(CN[*:2])N[*:1]; d(hPhe) = N[C@H](CCc1ccccc1)C(=O)O; Hyp = O=C(O)[C@@H]1C[C@@H](O)CN1; hPhe = N[C@@H](CCc1ccccc1)C(=O)O; 3Pal = N[C@@H](Cc1cccnc1)C(=O)O; Cyclohexylmethyl = C1CCC(C*)CC1; Tic = O=C(O)[C@@H]1Cc2ccccc2CN1; Benzyl(4-Cl) = Clc1ccc(C*)cc1; Phg = N[C@H](C(=O)O)c1ccccc1; CO = O=C([*:1])[*:2]; Bn = c1ccc(C*)cc1

The conditions of experiment [1]: Phase II trial, hepatocellular carcinoma; cited from earlier work.
For another experiment, the target named is SST5 (Homo sapiens, UniProt P35346). Nature of the experiment: Hit Hunter cAMP XS+ assay, SST5 activation via Gi (reduction of forskolin-stimulated cAMP). It is filed as cell-based. The conditions noted are these: for Emax: read-out: SST5 (EMax); for SST5/2 Selectivity: selectivity for SST5 over SST2. An outline of the steps:
(§1)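 Cells (10,000/well) incubated 30 min at 37 °C with compound under EC80 forskolin ([…] for SST2, 15 μM for SST5). cAMP reduction was detected by enzyme-fragment complementation chemiluminescence after 60 min and 180 min room-temperature reagent steps. Potency and efficacy were both measured.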

For experiment [2] the following is noted: Phase I trial, pancreatic cancer, combination treatment with gemcitabine; cited from earlier work.
A further experiment concerns the target SST2 (Homo sapiens, UniProt P30874). The experiment is described as follows: Hit Hunter cAMP XS+ assay, SST2 activation via Gi (reduction of forskolin-stimulated cAMP). The class given is cell-based. The conditions noted are these: for Emax: read-out: SST2 (EMax). In a few lines:
as §1

The mark [3] stands for this setting: reduction of forskolin-stimulated cAMP, 4-parameter logistic fit, read-out: SST5 pEC50 (converted).
[4] abbreviates: reduction of forskolin-stimulated cAMP, 4-parameter logistic fit, read-out: SST2 pEC50 (converted).

Chain of SST5 (P35346 whole entry, the tested form may be a part): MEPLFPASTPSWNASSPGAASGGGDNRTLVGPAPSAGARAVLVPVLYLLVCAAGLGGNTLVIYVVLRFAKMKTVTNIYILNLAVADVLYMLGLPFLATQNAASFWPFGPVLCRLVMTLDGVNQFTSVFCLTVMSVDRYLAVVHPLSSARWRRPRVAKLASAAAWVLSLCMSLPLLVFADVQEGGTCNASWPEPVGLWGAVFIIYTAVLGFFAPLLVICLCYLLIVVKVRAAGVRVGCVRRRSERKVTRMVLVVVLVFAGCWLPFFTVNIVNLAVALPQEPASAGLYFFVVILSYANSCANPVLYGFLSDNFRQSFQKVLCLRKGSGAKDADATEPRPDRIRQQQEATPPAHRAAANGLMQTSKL
Chain of SST2 (P30874 whole entry): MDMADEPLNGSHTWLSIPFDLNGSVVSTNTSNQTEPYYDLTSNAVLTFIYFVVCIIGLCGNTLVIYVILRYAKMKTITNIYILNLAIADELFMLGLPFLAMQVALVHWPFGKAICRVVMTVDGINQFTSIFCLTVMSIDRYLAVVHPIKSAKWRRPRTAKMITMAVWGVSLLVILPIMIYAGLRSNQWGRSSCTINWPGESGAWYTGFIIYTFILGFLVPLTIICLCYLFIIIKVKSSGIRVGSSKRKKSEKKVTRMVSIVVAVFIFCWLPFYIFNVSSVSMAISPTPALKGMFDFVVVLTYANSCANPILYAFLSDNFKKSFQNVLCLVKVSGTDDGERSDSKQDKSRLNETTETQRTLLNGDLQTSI

The term Emax denotes the size of the effect at its maximum, as opposed to the concentration needed. With `NCCCC[C@@H]1NC(=O)[C@@H](Cc2c[nH]c3ccccc23)NC(=O)[C@H](c2ccccc2)NC(=O)[C@@H]2C[C@@H](OC(=O)NCCN)CN2C(=O)[C@H](Cc2ccccc2)NC(=O)[C@H](Cc2ccc(OCc3ccccc3)cc2)NC1=O` [pasireotide, reference compound] (cyclo([Hyp]([CO-Ethylenediamine])[Phg][dW]KY(Bn)F)), the “patients with limitation of disease progression” value in experiment [1] is on record as 45%. Further, on SST5, the EC50 is 0.251 nM, the Emax came out at 102% and the “SST5/2 Selectivity” value came to 3.8. In experiment [2], the disease control rate is on record as 68%. In addition, on SST2, the EC50 was 1 nM and the Emax is 100%.

Turning to `NCCNC(=O)O[C@@H]1C[C@H]2C(=O)N[C@@H](c3ccccc3)C(=O)N[C@H](Cc3c[nH]c4ccccc34)C(=O)N[C@@H](CC3CCNCC3)C(=O)N[C@@H](Cc3ccc(OCc4ccccc4)cc3)C(=O)N[C@@H](Cc3ccccc3)C(=O)N2C1` [Example 1] (cyclo(F[Hyp]([CO-Ethylenediamine])[Phg][dW][Ala(piperidin-4-yl)]Y(Bn))), on SST5, the EC50 is 25.1 nM, the Emax is 98.6% and the “SST5/2 Selectivity” value was determined as 130.7. On SST2, the EC50 is 3160 nM and the Emax was 62%.

Take `NCCNC(=O)O[C@@H]1C[C@H]2C(=O)N[C@@H](CCc3ccccc3)C(=O)N[C@H](Cc3c[nH]c4ccccc34)C(=O)N[C@@H](CN3CCNCC3)C(=O)N[C@@H](Cc3ccc(OCc4ccccc4)cc3)C(=O)N[C@@H](Cc3cccc(Cl)c3)C(=O)N2C1` [Example 48] (cyclo([Hyp]([CO-Ethylenediamine])[hPhe][dW][Ala(piperazin-1-yl)]Y(Bn)[Phe(3-Cl)])): the Emax was found to be 103% on SST5 and 100% on SST2. Besides, the EC50 at SST5 (setting [3]) was 0.02 nM; on SST2 (setting [4]), 2 nM. The “SST5/2 Selectivity” value on SST5 was 106.6.

In the case of `NCCNC(=O)O[C@@H]1C[C@H]2C(=O)N[C@@H](CCc3ccccc3)C(=O)N[C@H](Cc3c[nH]c4ccccc34)C(=O)N[C@@H](CC3CCNCC3)C(=O)N[C@@H](Cc3ccc(OCC4CCCCC4)cc3)C(=O)N[C@@H](Cc3cccnc3)C(=O)N2C1` [Example 54] (cyclo([3Pal][Hyp]([CO-Ethylenediamine])[hPhe][dW][Ala(piperidin-4-yl)]Y(Cyclohexylmethyl))), the Emax on SST5 amounted to 104%; on SST2, 96.2%. The results for the EC50 on SST5 (setting [3]) and at SST2 (setting [4]) were 0.501 nM and 631 nM, respectively. For the same compound, at SST5, the “SST5/2 Selectivity” value stood at 1083.5.

Take `O=C1N[C@@H](Cc2cccnc2)C(=O)N2C[C@H](Oc3ccncc3)C[C@H]2C(=O)N[C@H](CCc2ccccc2)C(=O)N[C@H](Cc2c[nH]c3ccccc23)C(=O)N[C@@H](CC2CCNCC2)C(=O)N[C@H]1Cc1ccc(OCc2ccccc2)cc1` [Example 20] (cyclo([3Pal][X2][d(hPhe)][dW][Ala(piperidin-4-yl)]Y(Bn))): the maximum response (Emax) at SST5 amounted to 99.6%; at SST2 it was 98%. For the same compound, the values for the EC50 at SST5 (setting [3]) and on SST2 (setting [4]) were 6.31 nM and 3160 nM, respectively. The “SST5/2 Selectivity” value at SST5 is reported as 418.4.

As for `O=C1N[C@@H](Cc2ccc(OCc3ccccc3)cc2)C(=O)N[C@@H](Cc2cccnc2)C(=O)N2C[C@H](Oc3ccncc3)C[C@H]2C(=O)N[C@@H](CCc2ccccc2)C(=O)N[C@@H](Cc2c[nH]c3ccccc23)C(=O)N[C@H]1CC1CCNCC1` [Example 23] (cyclo([3Pal][X2][hPhe]W[Ala(piperidin-4-yl)]Y(Bn))), the Emax at SST5 stood at 101%; on SST2 it was 96.6%. For the same compound, the EC50 at SST5 (setting [3]) was 3.98 nM; on SST2 (setting [4]) it was 631 nM. Moreover, the “SST5/2 Selectivity” value on SST5 stood at 148.7.

On to `NCCNC(=O)O[C@@H]1C[C@H]2C(=O)N[C@@H](Cc3ccccc3)C(=O)N[C@H](Cc3c[nH]c4ccccc34)C(=O)N[C@@H](CC3CCNCC3)C(=O)N[C@@H](Cc3ccc(OCc4ccccc4)cc3)C(=O)N[C@@H](Cc3ccccc3)C(=O)N2C1` [Example 2] (cyclo(F[Hyp]([CO-Ethylenediamine])F[dW][Ala(piperidin-4-yl)]Y(Bn))), for which, on SST5, the EC50 was 20 nM, the Emax is 105% and the “SST5/2 Selectivity” value amounted to 21.9. In addition, at SST2, the EC50 was 398 nM and the Emax was determined as 96.4%.

For the compound `NCCNC(=O)O[C@@H]1C[C@H]2C(=O)N[C@H](CCc3ccccc3)C(=O)N[C@H](Cc3c[nH]c4ccccc34)C(=O)N[C@@H](CN3CCNCC3)C(=O)N[C@@H](Cc3ccc(OCc4ccc(Cl)cc4)cc3)C(=O)N[C@@H](Cc3cccnc3)C(=O)N2C1` [Example 58] (cyclo([3Pal][Hyp]([CO-Ethylenediamine])[d(hPhe)][dW][Ala(piperazin-1-yl)]Y(Benzyl(4-Cl)))), the figures for the maximum response (Emax) at SST5 and on SST2 were 103% and 42.9%, respectively. For the same compound, the EC50 at SST5 (setting [3]) was 15.8 nM; on SST2 (setting [4]), greater than 10000 nM. Also, the “SST5/2 Selectivity” value at SST5 was determined as 695.7.

Consider `O=C1N[C@@H](Cc2ccc(OCc3ccccc3)cc2)C(=O)N2Cc3ccccc3C[C@H]2C(=O)N2CCOC[C@H]2C(=O)N[C@@H](CCc2ccccc2)C(=O)N[C@H](Cc2c[nH]c3ccccc23)C(=O)N[C@H]1CC1CCNCC1` [Example 45] (cyclo([Tic][Morpholine(3S-CO)][hPhe][dW][Ala(piperidin-4-yl)]Y(Bn))), for which the Emax at SST5 and on SST2 was 100% throughout. Moreover, the figures for the EC50 at SST5 (setting [3]) and at SST2 (setting [4]) were 0.398 nM and 158 nM, respectively. Moreover, at SST5, the “SST5/2 Selectivity” value amounted to 430.7.

Take `NCCNC(=O)O[C@@H]1C[C@H]2C(=O)N[C@@H](CCc3ccccc3)C(=O)N[C@H](Cc3c[nH]c4ccccc34)C(=O)N[C@@H](CC3CCNCC3)C(=O)N[C@@H](Cc3ccc(OCc4ccccc4)cc3)C(=O)N[C@@H](Cc3cccnc3)C(=O)N2C1` [Example 3] (cyclo([3Pal][Hyp]([CO-Ethylenediamine])[hPhe][dW][Ala(piperidin-4-yl)]Y(Bn))): on SST5, the EC50 is 0.794 nM, the Emax was 100% and the “SST5/2 Selectivity” value was 236.7. Besides, on SST2, the EC50 was 200 nM and the Emax came out at 98.4%.

With `COc1ccc(C[C@@H]2NC(=O)[C@H](Cc3ccc(OCc4ccccc4)cc3)NC(=O)[C@H](CC3CCNCC3)NC(=O)[C@@H](Cc3c[nH]c4ccccc34)NC(=O)[C@H](CCc3ccccc3)NC(=O)[C@@H]3C[C@@H](OC(=O)NCCN)CN3C2=O)cc1` [Example 43] (cyclo([Hyp]([CO-Ethylenediamine])[hPhe][dW][Ala(piperidin-4-yl)]Y(Bn)Y(Me))), the figures for the Emax at SST5 and on SST2 were 107% and 101%, respectively. The results for the EC50 on SST5 (setting [3]) and at SST2 (setting [4]) were 0.316 nM and 31.6 nM, respectively. The “SST5/2 Selectivity” value on SST5 stood at 94.3.
